Experimental data taken from patent US6399629B1, “Efflux pump inhibitors” (priority 1998, dated 2002).

Tested on: Pseudomonas aeruginosa PAM1001
Assay: checkerboard assay (broth microdilution): levofloxacin MIC in presence of efflux pump inhibitor
Format: cell-based
In short: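 Checkerboard broth microdilution in Mueller Hinton Broth against P. aeruginosa PAM1001 (5×10^5 CFU/mL, early-log inoculum), levofloxacin and efflux pump inhibitor (up to 40 μg/mL) diluted along crossing axes. Plates incubated 20 h at 35° C; growth read at 650 nm and visually. Potentiation scored as reduced levofloxacin MIC.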

Compound | Levofloxacin MIC Against P. aerugiuosa PAM1001 in Presence of Efflux Pump Inhibitor (EPI), Minimum Inhibitory Concentration (EPI Conc. 0 μg/mL) [µg/mL] | Levofloxacin MIC Against P. aerugiuosa PAM1001 in Presence of Efflux Pump Inhibitor (EPI), Minimum Inhibitory Concentration (EPI Conc. 0.625 μg/mL) [µg/mL] | Levofloxacin MIC Against P. aerugiuosa PAM1001 in Presence of Efflux Pump Inhibitor (EPI), Minimum Inhibitory Concentration (EPI Conc. 1.25 μg/mL) [µg/mL] | Levofloxacin MIC Against P. aerugiuosa PAM1001 in Presence of Efflux Pump Inhibitor (EPI), Minimum Inhibitory Concentration (EPI Conc. 2.5 μg/mL) [µg/mL] | Levofloxacin MIC Against P. aerugiuosa PAM1001 in Presence of Efflux Pump Inhibitor (EPI), Minimum Inhibitory Concentration (EPI Conc. 5 μg/ mL) [µg/mL] | Levofloxacin MIC Against P. aerugiuosa PAM1001 in Presence of Efflux Pump Inhibitor (EPI), Minimum Inhibitory Concentration (EPI Conc. 10 μg/mL) [µg/mL] | Levofloxacin MIC Against P. aerugiuosa PAM1001 in Presence of Efflux Pump Inhibitor (EPI), Minimum Inhibitory Concentration (EPI Conc. 20 μg/mL) [µg/mL] | Levofloxacin MIC Against P. aerugiuosa PAM1001 in Presence of Efflux Pump Inhibitor (EPI), Minimum Inhibitory Concentration (EPI Conc. 40 μg/mL) [µg/mL]
NCC(=O)N[C@H]1CN[C@H](C(=O)NCc2nc3ccccc3n2CCc2ccccc2)C1 [Compound M80, (2S,4R)-4-(2-Aminoacetamido)-N-[(1-(2-phenyl)ethyl-2-benzimidazoly)methyl]-2-pyrrolidinexarboxamide] | 4 | 4 | 4 | 4 | 2 | 0.25 | 0.06 | 0.06
COc1cc(C)c2ncc(NC(=O)[C@@H](CCc3ccccc3)NC(=O)[C@@H]3C[C@@H](NC(=O)CN)CN3)cc2c1 [Compound M22] | 4 | 4 | 4 | 4 | 4 | 0.50 | 0.03 | 0.015
NCC(=O)N[C@H]1CN[C@H](C(=O)N[C@H](CCc2ccccc2)CSc2ccc3ccccc3n2)C1 [Compound M55, (2S,4R)-4-(2-Aminoacetamido)-N-[(1R)-3-phenyl-1-[(2-quinolythio)methyl]propyl]-2-pyrrolidinecarobxamide] | 4 | 4 | 4 | 4 | 4 | 2 | 1 | 0.06
CN(C(=O)CN)[C@@H]1CN[C@H](C(=O)N[C@H](CCc2ccccc2)C(=O)Nc2cnc3ccccc3c2)C1 [Compound M9] | 4 | 4 | 4 | 4 | 4 | 4 | 2 | 0.06
NC[C@@H]1CN[C@@H](C(=O)N[C@H](CCc2ccccc2)C(=O)Nc2cc(Cl)ccc2O)C1 [Compound M39, (2R,4R)-4-(Aminomethyl)-N-[(1R)-3-pheyl-1-(5-chloro-2-hydroxyphenylcarbamoyl)propyl]-2-pyrrolidinecarboxamide] | 4 | 4 | 2 | 0.5 | 0.25 | 0.015 | 0.015 | 0.015
CC(C)CC(NC(=O)C1CC(CN)CN1)C(=O)Nc1cnc2ccccc2c1 [Compound M13, (2R,4R)-4-(Aminomethyl)-N-[(1R)-3-methyl-1-quinolylcarbanioyl)bulyl]-2-pyrrolidinecarboxamide] | 4 | 4 | 4 | 2 | 1 | 0.06 | 0.06 | 0.06
